pIC50: −log10 of the molar value.
molecular target: non-endogenous, constitutively activated version of the human 5-HT2A receptor (human CART 5-HT2A) (Homo sapiens, UniProt P28223); assay: Intracellular IP3 (inositol phosphate) accumulation assay, inverse agonist potency; format: cell-based; conditions: HEK293 cells transfected with mutated constitutively active 5-HT2A, averages of at least two trials, read-out: 5-HT2A (IC50) IP Accumulation Assay
Source text: It is well established that human 5-HT2A receptors coupled to the guanine nucleotide binding protein Gq. 5-HT2A-mediated activation of Gq results in activation of membrane associated phospholipase C which in turn catalyzes the hydrolysis of phosphatidylinositol species (PI, PIP, and PIP2) to form inositol phosphate species (IP, IP2, and IP3). The accumulation of inositol phosphate species can be measured and is often used to determine the functional potency of 5-HT2A agonists or antagonists. However, to evaluate compounds for potential inverse agonist activity, the 5-HT2A receptor must display constitutive activity. We have mutated the human 5-HT2A receptor so as to generate a non-endogenous, constitutively activated version of the 5-HT2A receptor, as disclosed in SEQ ID NO:30 (polynucleotide) and SEQ ID NO:31 (polypeptide) in U.S. Pat. No. 6,541,209 (the disclosure of which is hereby incorporated by reference in its entirety). Upon transfection of this mutated 5-HT2A into HEK293 cells, it was observed that there was a ligand-independent increase in basal inositol phosphate accumulation compared to untransfected cells. This ligand-independent insoitol phosphate accumulation is a trademark of constitutive activity. The following protocol was used to assess inverse agonist potency of compounds.
On day one, 13×10^6 HEK293 cells per 150 mm plate were plated out. On day two, 2 ml of serum OptimemI is added per plate followed by addition of 60 ul of lipofectamine and 16ug of cDNA. Note that lipofectamine must be added to the OptimemI and mixed well before addition of cDNA. While complexes between lipofectamine and the cDNA are forming, media is carefully aspirated and cells are gently rinsed with 5 ml of OptimemI media followed by careful aspiration. Then 12 ml of OptimemI is added to each plate and 2 ml of transfection solution is added followed by a 5 hour incubation at 37° C. in a 5% CO2 incubator. Plates are then carefully aspirated and 25 ml of Complete Media are added to each plate and cells are then incubated until used. On day 3, cells are trypsinized with 5 ml of 0.05% trypsin for 20-30 seconds followed by addition of 10 ml of warmed media, gently titurated to dissociate cells, and then 13 additional ml of warmed media is gently added. Cells are then counted and then 55,000 cells are added to 96-well sterile poly-D-lysine coated plates. Cells are allowed to attach over a six hour incubation at 37° C. in a 5% CO2 incubator. Media is then carefuilly aspirated and 100 ul of warm inositol-free media plus 0.5 μCi ^3H-inositol is added to each well and the plates are incubated for 18-20 hours at 37° C. in a 5% CO2 incubator.
On day 4, media is carefully aspirated and then 0.1 ml of assay medium is added containing inositol-free/serum free media, 10 μM pargyline, 10 mM lithium chloride, and test compound at indicated concentrations. The plates were then incubated for three hours at 37° C. and then wells are carefully aspirated. Then 200 ul of ice-cold 0.1M formic acid is added to each well. Plates can then be frozen at this point at −80° C. until further processed. Frozen plates are then thawed over the course of one hour, and the contents of the wells (approximately 220 ul) are placed over 400 ul of washed ion-exchange resin (AG 1-X8) contained in a Multi Screen Filtration plate and incubated for 10 minutes followed by filtration under vacuum pressure. Resin is then washed nine times with 200 ul of water and then [^3H]inositol phosphates are eluted into a collecting plate by the addition of 200 ul of 1M ammonium formate and an additional 5 minute incubation. The elutant is then transferred to 20 ml scintillation vials, 8 ml of SuperMix or Hi-Safe scintillation cocktails is added, and vials are counted for 0.5-1 minutes in a Wallac 1414 scintilation counter.
At each concentration, triplicate determinations were made. […]

| Structure (SMILES) | pIC50 |
| --- | --- |
| COc1ccc(Nc2ccc(Cl)cc2)cc1-c1c(Br)cnn1C [Compound 70, [3-(4-Bromo-2-methyl-2H-pyrazol-3-yl)-4-methoxy-phenyl)-(4-chloro-phenyl)-amine] | 8.75 |
| Cn1ncc(Cl)c1-c1cccc(Nc2ccc(OC(F)(F)F)cc2)c1 [Compound 8, [3-(4-Chloro-2-methyl-2H-pyrazol-3-yl)-phenyl]-(4-trifluoromethoxy-phenyl)-amine] | 7.35 |
| Cn1ncc(Br)c1-c1cccc(Nc2nc3ccccc3o2)c1 [Compound 57, Benzoxazol-2-yl-[3-(4-bromo-2-methyl-2H-pyrazol-3-yl)-phenyl]-amine] | 7.98 |

More lines, now with the values ahead:

| pIC50 | Structure (SMILES) |
| --- | --- |
| 7.72 | Cc1cc(Nc2cccc(-c3c(Br)cnn3C)c2)ccc1Cl [Compound 49, [3-(4-Bromo-2-methyl-2H-pyrazol-3-yl)-phenyl]-(3-methyl-4-chloro-phenyl)-amine] |
| 8.52 | Cn1ncc(Br)c1-c1cccc(Nc2ccc(C(F)(F)F)cc2)c1 [Compound 44, [3-(4-Bromo-2-methyl-2H-pyrazol-3-yl)-phenyl]-(4-trifluoromethyl-phenyl)-amine] |
| 8.15 | Cn1ncc(Br)c1-c1cccc(Nc2ccc(Cl)cc2)c1 [Compound 36, [3-(4-Bromo-2-methyl-2H-pyrazo1-3-yl)-phenyl]-(4-chloro-phenyl)-amine] |
| 6.95 | Cn1ncc(Br)c1-c1cccc(Nc2ccc(S(C)(=O)=O)cc2)c1 [Compound 46, [3-(4-Bromo-2-methyl-2H-pyrazol-3-yl)-phenyl]-(4-methanesulfonyl-phenyl)-amine] |

Reference: patent US20060229335A1, “Diarylamine and arylheteroarylamine pyrazole derivatives as modulators of 5ht2a” (priority 2002, published 2006)
